SMILES strings stand for the structures.

IC50 data for 28 molecules are collected here from patent US9969752B2, “Inhibitors of HIF prolyl hydroxylase” (MERCK SHARP & DOHME CORP., priority 2014, dated 2018).

The target in the first assay is T1, Human HIF-PHD2 (Homo sapiens, UniProt Q9GZT9).
T1 construct: FLAG-tagged full length PHD2 expressed in and purified from baculovirus-infected Sf9 cells; FLAG; made in house; host or cells: baculovirus-infected Sf9 cells
T1 sequence (Q9GZT9 whole entry): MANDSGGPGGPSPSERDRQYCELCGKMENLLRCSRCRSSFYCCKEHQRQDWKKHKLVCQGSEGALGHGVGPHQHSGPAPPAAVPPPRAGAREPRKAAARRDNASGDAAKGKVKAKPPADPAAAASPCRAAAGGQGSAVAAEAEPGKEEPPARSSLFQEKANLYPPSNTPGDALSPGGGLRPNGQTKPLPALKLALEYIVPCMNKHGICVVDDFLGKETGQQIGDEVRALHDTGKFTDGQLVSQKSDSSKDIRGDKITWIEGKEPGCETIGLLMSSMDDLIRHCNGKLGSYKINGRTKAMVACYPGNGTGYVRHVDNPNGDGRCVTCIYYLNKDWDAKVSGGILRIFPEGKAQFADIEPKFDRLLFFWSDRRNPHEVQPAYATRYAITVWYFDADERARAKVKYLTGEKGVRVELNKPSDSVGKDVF
Nature of the assay: Inhibition of the hydroxylation of a HIF peptide by PHD2 (time resolved fluorescence, 384-well). In kind it is biochemical. The note with it: FLAG-tagged full length PHD2; 0.2 μM 2-oxoglutarate, 0.5 μM HIF-1α peptide; 45 minutes at room temperature; read-out: Human HIF-PHD2 IC50.
For `N#Cc1ccc(C2Cn3c(=O)c(C(=O)NCC(=O)O)c(O)c4ccc(C#N)c(c43)O2)cc1` (stereo not shown) [Example 56, 2-(10-Cyano-2-(4-cyanophenyl)-7-hydroxy-5-oxo-3,5-dihydro-2H-[1,4]oxazino[2,3,4-ij]quinoline-6-carboxamido)acetic acid], the IC50 turned out to be 0.6 nM. For the molecule `O=C(O)CNC(=O)c1c(O)c2ccc(Br)c3c2n(c1=O)CC(c1ccc(Br)cc1)O3` (stereo not shown) [Example 57, 2-(10-Bromo-2-(4-bromophenyl)-7-hydroxy-5-oxo-3,5-dihydro-2H-[1,4]oxazino[2,3,4-ij]quinoline-6-carboxamido)acetic acid], the IC50 was 2.7 nM. On the same count and under the same terms, under `O=C(O)CNC(=O)c1c(O)c2cccc3c2n(c1=O)CC(c1ccc(C(F)(F)F)cc1)[S+]3[O-]` (stereo not shown) [Example 59, 2-(7-Hydroxy-1-oxido-5-oxo-2-(4-(trifluoromethyl)phenyl)-3,5-dihydro-2H-[1,4]thiazino[2,3,4-ij]quinoline-6-carboxamido)acetic acid] stands 1 nM. For `O=C(O)CNC(=O)c1c(O)c2cccc3c2n(c1=O)CC(c1ccc(C(F)(F)F)cc1)S3(=O)=O` (stereo not shown) [Example 60, 2-(7-Hydroxy-1,1-dioxido-5-oxo-2-(4-(trifluoromethyl)phenyl)-3,5-dihydro-2H-[1,4]thiazino[2,3,4-ij]quinoline-6-carboxamido)acetic acid], the IC50 came to 0.8 nM. For the molecule `Cc1ccc2c3c1c(O)c(C(=O)NCC(=O)O)c(=O)n3CC(c1ccc(C(F)(F)F)cc1)O2` (stereo not shown) [Example 63, 2-(7-Hydroxy-8-methyl-5-oxo-2-(4-(trifluoromethyl)phenyl)-3,5-dihydro-2H-[1,4]oxazino[2,3,4-ij]quinoline-6-carboxamido)acetic acid], the IC50 amounted to 13 nM. For `O=C(O)CNC(=O)c1c(O)c2cccc3c2n(c1=O)CC(c1ccc(C(F)(F)F)cc1)N3` (stereo not shown) [Example 64, 2-(7-Hydroxy-5-oxo-2-(4-(trifluoromethyl)phenyl)-1,2,3,5-tetrahydropyrido[1,2,3-de]quinoxaline-6-carboxamido)acetic acid], the IC50 came out at 4.5 nM. `CN1c2cccc3c(O)c(C(=O)NCC(=O)O)c(=O)n(c23)CC1c1ccc(C(F)(F)F)cc1` (stereo not shown) [Example 65, 2-(7-Hydroxy-1-methyl-5-oxo-2-(4-(trifluoromethyl)phenyl)-1,2,3,5-tetrahydropyrido[1,2,3-de]quinoxaline-6-carboxamido)acetic acid]: the IC50 came to 34 nM. On to `O=C(O)CNC(=O)c1c(O)c2cc(F)cc3c2n(c1=O)CC(c1ccc(C(F)(F)F)cc1)O3` (stereo not shown) [Example 66, 2-(9-Fluoro-7-hydroxy-5-oxo-2-(4-(trifluoromethyl)phenyl)-3,5-dihydro-2H-[1,4]oxazino[2,3,4-ij]quinoline-6-carboxamido)acetic acid], for which the IC50 turned out to be 5 nM.

Turning to `O=C(O)CNC(=O)c1c(O)c2ccc(F)c3c2n(c1=O)CC(c1ccc(C(F)(F)F)cc1)O3` (stereo not shown) [Example 67, 2-(10-Fluoro-7-hydroxy-5-oxo-2-(4-(trifluoromethyl)phenyl)-3,5-dihydro-2H-[1,4]oxazino[2,3,4-ij]quinoline-6-carboxamido)acetic acid], the IC50 was determined as 4.3 nM. For the molecule `CS(=O)(=O)c1ccc(C2Cn3c(=O)c(C(=O)NCC(=O)O)c(O)c4ccc(C(F)(F)F)c(c43)O2)cc1` (stereo not shown) [Example 76, 2-(7-Hydroxy-2-(4-(methylsulfonyl)phenyl)-5-oxo-10-(trifluoromethyl)-3,5-dihydro-2H-[1,4]oxazino[2,3,4-ij]quinoline-6-carboxamido)acetic acid], the IC50 came out at 1.4 nM.

Turning to `COc1ccc2c3c1c(O)c(C(=O)NCC(=O)O)c(=O)n3CC(c1ccc(C(F)(F)F)cc1)O2` (stereo not shown) [Example 79, 2-(7-hydroxy-8-methoxy-5-oxo-2-(4-(trifluoromethyl)phenyl)-3,5-dihydro-2H-[1,4]oxazino[2,3,4-ij]quinoline-6-carboxamido)acetic acid], the IC50 was 4 nM.

Regarding `O=C(O)CNC(=O)c1c(O)c2c(O)ccc3c2n(c1=O)CC(c1ccc(C(F)(F)F)cc1)O3` (stereo not shown) [Example 80, 2-(7,8-dihydroxy-5-oxo-2-(4-(trifluoromethyl)phenyl)-3,5-dihydro-2H-[1,4]oxazino[2,3,4-ij]quinoline-6-carboxamido)acetic acid], the IC50 stood at 12 nM. Still for that read-out and setting: under `COc1cc2c3c(c1)c(O)c(C(=O)NCC(=O)O)c(=O)n3CC(c1ccc(C(F)(F)F)cc1)O2` (stereo not shown) [Example 81, 2-(7-Hydroxy-9-methoxy-5-oxo-2-(4-(trifluoromethyl)phenyl)-3,5-dihydro-2H-[1,4]oxazino[2,3,4-ij]quinoline-6-carboxamido)acetic acid] stands 2.9 nM; under `O=C(O)CNC(=O)c1c(O)c2cc(O)cc3c2n(c1=O)CC(c1ccc(C(F)(F)F)cc1)O3` (stereo not shown) [Example 82, 2-(7,9-Dihydroxy-5-oxo-2-(4-(trifluoromethyl)phenyl)-3,5-dihydro-2H-[1,4]oxazino[2,3,4-ij]quinoline-6-carboxamido)acetic acid], 2.7 nM; under `O=C(O)CNC(=O)c1c(O)c2cccc3c2n(c1=O)CC(c1ccc(C(F)(F)F)nc1)C3` (stereo not shown) [Example 83, 2-(1-Hydroxy-3-oxo-6-(6-(trifluoromethyl)pyridin-3-yl)-3,5,6,7-tetrahydropyrido[3,2,1-ij]quinoline-2-carboxamido)acetic acid], 5 nM. For the molecule `N#Cc1cc2c3c(c1)c(O)c(C(=O)NCC(=O)O)c(=O)n3CC(c1ccc(C(F)(F)F)nc1)C2` (stereo not shown) [Example 84, 2-(9-cyano-1-hydroxy-3-oxo-6-(6-(trifluoromethyl)pyridin-3-yl)-3,5,6,7-tetrahydropyrido[3,2,1-ij]quinoline-2-carboxamido)acetic acid], the IC50 was 0.9 nM. As to `CS(=O)(=O)c1cc2c3c(c1)c(O)c(C(=O)NCC(=O)O)c(=O)n3CC(c1ccc(C(F)(F)F)nc1)C2` (stereo not shown) [Example 85, 2-(1-hydroxy-9-(methylsulfonyl)-3-oxo-6-(6-(trifluoromethyl)pyridin-3-yl)-3,5,6,7-tetrahydropyrido[3,2,1-ij]quinoline-2-carboxamido)acetic acid], the IC50 is 0.9 nM.

On to `N#Cc1cc2c3c(c1)c(O)c(C(=O)NCC(=O)O)c(=O)n3CC(c1ccc(C(F)(F)F)cc1)[S+]2[O-]` (stereo not shown) [Example 91, 2-(9-Cyano-7-hydroxy-1-oxido-5-oxo-2-(4-(trifluoromethyl)phenyl)-3,5-dihydro-2H-[1,4]thiazino[2,3,4-ij]quinoline-6-carboxamido)acetic acid], for which the IC50 was 0.839 nM.

As to `N#Cc1cc2c3c(c1)c(O)c(C(=O)NCC(=O)O)c(=O)n3C(c1ccc(C(F)(F)F)cc1)CN2` (stereo not shown) [Example 92, 2-(9-Cyano-7-hydroxy-5-oxo-3-(4-(trifluoromethyl)phenyl)-1,2,3,5-tetrahydropyrido[1,2,3-de]quinoxaline-6-carboxamido)acetic acid], the IC50 amounted to 3.1 nM.

For `N#Cc1ccc2c3c1c(O)c(C(=O)NCC(=O)O)c(=O)n3CC(c1ccc(C(F)(F)F)cc1)N2` (stereo not shown) [Example 94, 2-(8-Cyano-7-hydroxy-5-oxo-2-(4-(trifluoromethyl)phenyl)-1,2,3,5-tetrahydropyrido[1,2,3-de]quinoxaline-6-carboxamido)acetic acid], the IC50 stood at 0.8 nM. `CN1CC(c2ccc(C(F)(F)F)cc2)n2c(=O)c(C(=O)NCC(=O)O)c(O)c3cc(C#N)cc1c32` (stereo not shown) [Example 95, 2-(9-Cyano-7-hydroxy-1-methyl-5-oxo-3-(4-(trifluoromethyl)phenyl)-1,2,3,5-tetrahydropyrido[1,2,3-de]quinoxaline-6-carboxamido)acetic acid]: the IC50 worked out at 5.5 nM. As to `CN1c2cc(C#N)cc3c(O)c(C(=O)NCC(=O)O)c(=O)n(c23)CC1c1ccc(C(F)(F)F)cc1` (stereo not shown) [Example 96, 2-(9-Cyano-7-hydroxy-1-methyl-5-oxo-2-(4-(trifluoromethyl)phenyl)-1,2,3,5-tetrahydropyrido[1,2,3-de]quinoxaline-6-carboxamido)acetic acid], the IC50 was 3 nM.

With `N#Cc1ccc2c3c1c(O)c(C(=O)NCC(=O)O)c(=O)n3CC(c1ccc(C(F)(F)F)cc1)S2` (stereo not shown) [Example 97, 2-(8-Cyano-7-hydroxy-5-oxo-2-(4-(trifluoromethyl)phenyl)-3,5-dihydro-2H-[1,4]thiazino[2,3,4-ij]quinoline-6-carboxamido)acetic acid], the IC50 is 1.5 nM. With `O=C(O)CNC(=O)c1c(O)c2c(F)ccc3c2n(c1=O)C(c1ccc(C(F)(F)F)cc1)CS3` (stereo not shown) [Example 98, 2-(8-Fluoro-7-hydroxy-5-oxo-3-(4-(trifluoromethyl)phenyl)-3,5-dihydro-2H-[1,4]thiazino[2,3,4-ij]quinoline-6-carboxamido)acetic acid], the IC50 stood at 13.7 nM. For the molecule `N#Cc1ccc2c3c1c(O)c(C(=O)NCC(=O)O)c(=O)n3C(c1ccc(C(F)(F)F)cc1)CS2` (stereo not shown) [Example 99, 2-(8-Cyano-7-hydroxy-5-oxo-3-(4-(trifluoromethyl)phenyl)-3,5-dihydro-2H-[1,4]thiazino[2,3,4-ij]quinoline-6-carboxamido)acetic acid], the IC50 worked out at 5.1 nM. On to `O=C(O)CNC(=O)c1c(O)c2cccc3c2n(c1=O)C(c1ccc(C(F)(F)F)cc1)CS3` (stereo not shown) [Example 100, 2-(7-Hydroxy-5-oxo-3-(4-(trifluoromethyl)phenyl)-3,5-dihydro-2H-[1,4]thiazino[2,3,4-ij]quinoline-6-carboxamido)acetic acid], for which the IC50 is 32 nM. For `O=C(O)CNC(=O)c1c(O)c2cccc3c2n(c1=O)C(c1ccc(C(F)(F)F)cc1)CS3(=O)=O` (stereo not shown) [Example 101, 2-(7-hydroxy-1,1-dioxido-5-oxo-3-(4-(trifluoromethyl)phenyl)-3,5-dihydro-2H-[1,4]thiazino[2,3,4-ij]quinoline-6-carboxamido)acetic acid], the IC50 is 8.6 nM.

Staying with this assay, now noted: FLAG-tagged full length PHD2; 0.2 μM 2-oxoglutarate, 0.5 μM HIF-1α peptide; 45 minutes at room temperature; read-out: MS m/z (M + 1)+ and human HIF-PHD2 IC50.
As to `O=C(O)CNC(=O)c1c(O)c2cccc3c2n(c1=O)CC(c1ccc(C(F)(F)F)cc1)[S+]3[O-]` (stereo not shown) [Example 61, 2-(7-hydroxy-1-oxido-5-oxo-2-(4-(trifluoromethyl)phenyl)-3,5-dihydro-2H-[1,4]thiazino[2,3,4-ij]quinoline-6-carboxamido)acetic acid], the IC50 amounted to 1 nM.
